Results taken from a melting point compilation (Tetko et al.; mined from patent text by program, amines drawn as free bases though some values may be those of a salt).

SMILES | melting point
COC(=O)c1ccc(-c2ccccc2-c2nnn(C(C)(C)c3ccccc3)n2)cc1 | 97 to 98 °C
FC(F)(F)Cn1c(-c2c(Cl)cccc2Cl)nc(-c2ccncc2)c1-c1ccc(Cl)cc1 | 213 to 214 °C
COc1ccc(-c2cc(F)c(F)cc2-c2ccc(S(N)(=O)=O)cc2)cc1C | 120 to 122 °C
COC(=O)c1ccc(Cl)nc1C1=NC(=O)C(C)(C(C)C)N1 (stereo not given) | 102 to 104 °C
C=CC[N+]([O-])(CCCCCCCCCCCCCCCCCC)CCCCCCCCCCCCCCCCCC | 59 to 64 °C
CCOC(=O)C1Cc2cc3ccccc3n2C1 (stereo not given) | 55 to 57 °C
CCCCn1ncc2c1nc(N)n1nc(-c3ccco3)nc21 | 157 to 158 °C
O=C(Nc1ccc(-n2nc(-c3cncc(Br)c3)cc2OC(F)F)cc1)c1ccncc1F | 179 to 180 °C
O=C(CN1CCN(CCSc2nc3cccc(C(F)(F)F)c3o2)CC1)Nc1c(C(F)(F)F)cc(OCc2ccccc2)cc1C(F)(F)F | 156 to 158 °C
CCOC(=O)c1cnn2c1c(NC1CCCCCC1)nc1ccccc12 | 114 to 115 °C
CC(C)(C)C(=O)OCN1C(=O)NC2(C1=O)C(=O)N(Cc1ccc(Cl)c(Cl)c1)c1ccccc12 (stereo not given) | 209 to 211 °C
CCOC(=O)c1c(-c2cccc([N+](=O)[O-])c2)cc(-c2ccccc2)nc1C | 110 to 112 °C
O=C1CCC(N2Cc3c(OCc4ccc(CN5CCN(S(=O)(=O)c6ccc(F)c(F)c6)CC5)cc4)cccc3C2=O)C(=O)N1 (stereo not given) | 225 to 227 °C
CCCOc1ccccc1-c1nc2nc(NC3CC3)ncc2c(=O)[nH]1 | 208 °C
CCOC(=O)CCc1ccc(O)c(OCc2ccccc2)c1 | 60 to 61 °C
CCSc1cc(N)c([N+](=O)[O-])cc1N | 142 °C
c1ccc2c(c1)nc(-c1ccc3c(c1)OCO3)n2Cc1ccncc1 | 166 to 167 °C
Nc1ccc2c3c(cccc13)C(=O)N(O)C2=O | > 360 °C
COc1ccc2c(=O)[nH]c(-c3cc(C)c(OCCN4CCCC4)c(C)c3)nc2c1 | 218 to 220 °C
COC(=O)c1cccc(C=NNc2ccc(C)cc2)c1O | 134 to 137 °C
Cc1c(C)n(CC(F)F)c2c(OCc3ccccc3)nncc12 | 128 to 131 °C
CSc1c(C#N)cnn1-c1ccc(C(F)(F)F)cc1Cl | 59 to 62 °C
CCOC(=O)c1nn(-c2ccc(N(C)C)cc2)c(=O)c2c(N)scc12 | 211 to 213 °C
CCN(CC)c1nc(Cl)nc2ccccc12 | 68 to 70 °C

SMILES | melting point
COc1ccc(C(=O)Nc2ccc(C)cc2)cc1NC(=S)Nc1cc(Cl)cc(Cl)c1 | 178 to 180 °C
CC(C)(C)c1ccc(OCC(O)CN2CCC(N3CCC4(CC3)CSC3=C(O4)c4ccccc4C(=O)C3=O)CC2)cc1 (stereo not given) | 190 to 193 °C
CCN1C(=O)C(C)(C)C(=O)N(C)c2cc(CN(CCn3ccc4oc(C)cc4c3=O)Cc3ccc(C=O)cc3)ccc21 | 153 to 155 °C
CCCCCCN(Cc1ccccc1)Cc1nc(-c2ccc(-c3ccccc3)cc2)c[nH]1 | 120 to 122 °C
COc1ccc(C(=CC(=O)O)c2ccc(-c3ccccc3)cc2)cc1OC | 178 to 184 °C
C=CCON=C(C(=O)O)C1=CSCCO1 | 119 to 121 °C
CC1(C)CCC(C)(C)c2cc(-c3cc([N+](=O)[O-])ccc3-c3ccccc3)ccc21 | 181 to 183 °C
CN1CCN(c2ncccc2C#N)C(c2ccccc2)C1 (stereo not given) | 65.7 to 66.8 °C
N#Cn1c(SCC(=O)N2CCCc3ccccc32)nc2ccccc21 | 153 to 154 °C
Cc1cnc(SCc2cc3c(cc2O)CCCO3)n1C | 139 to 140 °C
c1ccc(-c2ccc(-n3c4ccccc4c4c3ccc3c5ccccc5n(-c5ccc(-c6ccccc6)cc5)c34)cc2)cc1 | 315 °C
Cc1nc2cc(O)c(C)cc2o1 | 198 to 200 °C
COC(=O)CC(CSc1ccc2ccccc2c1)C(=O)O (stereo not given) | 97 to 99 °C
CCOC(=O)c1c(C)nn(C)c1SCc1ccccc1 | 55 to 56 °C
Cc1cccc(-n2nc(C(F)(F)F)cc2-c2ccc(S(C)(=O)=O)c(F)c2)c1 | 129 to 130 °C
Cc1nn(CCO)c(-c2ccc(F)cc2)c1-c1ccc2c(c1)NC(=O)CO2 | 178 to 179 °C
CCCCOc1nc(N)c2[nH]c(=O)n(CCCCN(CC(C)(C)CN(C)C)S(=O)(=O)c3cccc(CC(=O)O)c3)c2n1 | 175 to 176 °C
CCN(CC)C(=O)COC(=O)c1cccc(NC(=O)C(CSC(C)=O)Cc2ccccc2)c1 (stereo not given) | 143 to 144 °C
CN(Cc1cc(C(F)(F)F)cc(C(F)(F)F)c1)C(=O)c1c(-c2ccccc2)c2ccccc2c(=S)n1C | 145 to 147 °C
N[C@@H](CCCCNC(=O)NCc1ccccc1)C(=O)N1CC(F)(F)C(F)(F)C1 | 89 to 92 °C
CCN(CC)c1ccc(N(c2ccc(N(C)C)cc2)C2(c3ccc(N(C)C)cc3Cl)OC(=O)c3ccccc32)cc1 (stereo not given) | 67 to 84 °C
O=S(=O)(c1ccc(-c2ccc(C3COC(c4c(F)cccc4F)=N3)cc2)cc1)C(F)F (stereo not given) | 107 to 111 °C
O=C1CC(Nc2cc([N+](=O)[O-])ccc2Cl)=NN1c1c(Cl)cc(Cl)cc1Cl | 278 to 280 °C
COc1cc(C)c(CCCCCCCCCCCCCCCCCCCCCCO)c(O)c1OC | 78 to 81 °C

SMILES | melting point
CSc1nccc(C(C)=O)n1 | 35 °C
CN1c2ccccc2-c2nc3ccccc3c3cccc1c23 | 212 to 214 °C
CCCN1C=CC=C2C(=O)NC(c3ccccc3OCC)N=C21 (stereo not given) | 134 to 137 °C
Cc1cc(C(=O)CS(C)(=O)=O)cc(C)c1N(C)C | 132 to 133 °C
COc1ccc(Cn2c(-c3ccco3)nc3c(-c4ccco4)ncnc32)cc1 | 134 to 136 °C
N#Cc1cc(-c2ccccc2)c(=O)n2c1-c1ccccc1CC2 | 204 to 205 °C
CCOC(=O)c1c(C(C)(C)O)nc(CO)n1Cc1ccc(-c2ccccc2-c2nnn[nH]2)cc1 | 98 to 99 °C
CN(C)Cc1ccnc(OCCCNc2c(N)c(=O)c2=O)c1 | 212 to 214 °C
CCC1(CC)OC(C(=O)O)Oc2ccc(Cl)cc21 (stereo not given) | 108 °C
O=C1CCC(N2C(=O)c3cccc(OCc4ccc(CN5CCN(CC(F)(F)F)CC5)cc4)c3C2=O)C(=O)N1 (stereo not given) | 163 to 165 °C
O=C(N[C@H]1CC[C@H](CCN2CCC(c3ccc(F)c4occc34)CC2)CC1)C1CCOCC1 | 208 °C
CCOC(=O)c1cn(C)c2cnc3c(F)c(Cl)c(N4CCN(c5ccc(C)c(F)c5)CC4)cc3c2c1=O | 350 °C
CN(C)C(=O)C1(CCC#N)c2ccccc2-c2ccccc21 | 109 to 110 °C
CC1(C)Oc2ccc(C#N)cc2[C@@H](OC2=CC(=O)CC2)[C@@H]1O (relative stereo) | 154 to 156 °C
NC1=NN(c2ccccc2)C(c2ccc(Cl)cc2)C1 (stereo not given) | 184 to 186 °C
O=C(Cc1ccc(Cl)c(Cl)c1)N1C(=O)OC[C@@H]1Cc1ccccc1 | 70.5 to 71.5 °C
CCCc1c(OCCCSc2ccc(C(=O)CCC(=O)O)c(F)c2)ccc(C(C)=O)c1O | 149 to 150 °C
CN(C)C(=O)CC1(C)OCCc2c1[nH]c1ccccc21 (stereo not given) | 149 to 151 °C
O=C(NCc1cncc(F)c1)c1ccc(S(=O)(=O)n2cc(-c3ccccc3)c3ccccc32)cc1 | 131 °C
O=C(OC1CCCCC1=O)c1ccc([N+](=O)[O-])cc1 (stereo not given) | 124 to 125 °C
N#CCc1cc(Cl)nc(N)n1 | 110 to 115 °C
COc1cccc(-c2nc(C)nn2-c2ccc(S(N)(=O)=O)cc2)c1 | 211 to 212 °C
Cc1c(CNc2cccc(N)n2)c(C)c(CNc2cccc(N)n2)c(C)c1CNc1cccc(N)n1 | 130 to 132 °C
O=Cc1nc(-c2ccccc2)c(-c2ccccc2)n1Cc1ccccc1 | 146 to 147 °C

SMILES | melting point
Cc1ccc(C(=O)NC(NC(=O)Nc2ccccc2F)C(Cl)(Cl)Cl)cc1 (stereo not given) | 257 to 259 °C
CCC12CCC3C4CCC(=O)C=C4CC(C)C3C1CCC2O (stereo not given) | 152 to 154 °C
COC(=O)CCC(CNC(=O)C(C)(Cc1c[nH]c2ccccc12)NC(=O)OC1C2CC3CC(C2)CC1C3)c1ccccc1 (stereo not given) | 69 to 76 °C
Cc1sc(C=O)c(C)c1Br | 44 to 45 °C
CCN(CC)OC(C(=O)O)(C(=O)O)c1ccccc1 | > 250 °C
CCOC(=O)c1n[nH]c2c(=O)[nH]c3cc(Cl)ccc3c(=O)c12 | 290 °C
CC(=O)c1ccc(Nc2nc(N)c(C(=O)c3sccc3C)s2)cc1 | 171 to 172 °C
NC(=O)c1cc(-c2ccc(Cl)cc2)n(-c2ccc(S(N)(=O)=O)cc2)n1 | 108 to 110 °C
CCCCCCCOc1ccc(C(N)=O)cc1 | 149 to 152 °C
CCCCCCCCCCCCCCOc1ccc(C(=O)C(Br)c2ccc([N+](=O)[O-])cc2)cc1 (stereo not given) | 55 to 56 °C
CCCCCC1CCC(CCC2OCC(CCC)CO2)CC1 (stereo not given) | 44 °C
CCOC(=O)c1cn(CCO)c2c(F)c(F)c(F)cc2c1=O | 175 to 177 °C
CNC(=O)NC(=O)C(CC1CCCC1)c1ccc(S(C)(=O)=O)c(C#N)c1 (stereo not given) | 237 to 239 °C
CCOC(=O)N(CCNc1ccc2ncc(Br)n2n1)c1ccccc1 | 160 to 161 °C
COc1cc(Nc2nccc(-c3ccncc3)n2)cc(OC)c1OC | 205 °C
COCCOc1ccc(/C=C/C(=O)O)c(NC(=O)c2ccc(Cl)cc2Cl)c1 | 243 to 245 °C
O=c1cc(-c2nnn[nH]2)oc2c(COc3ccc(OCc4ccc5ccccc5n4)cc3)cccc12 | > 250 °C
CC(=O)N(CC(=O)O)c1csc(NC(=O)OCC(Cl)(Cl)Cl)n1 | 158 °C
CC(C)c1nn(-c2ccc(C(F)(F)F)cn2)cc1CCCOc1nn(C)cc1CC(=O)O | 122 to 123 °C
CCOCC(C)Oc1ccc(CSc2cnn(C(C)(C)C)c(=O)c2Cl)cc1 (stereo not given) | 89.2 to 90.2 °C
O=C(NC1CC1)c1cc2[nH]cnc2c(Cl)c1NC(=O)c1cc(C(F)(F)F)nn1-c1ncccc1Cl | 198 to 201 °C
Cc1cccc([N+](=O)[O-])c1C(=O)N[C@@H]1c2cc(OC(F)(F)F)ccc2OC(C)(C)[C@H]1O | 204 to 206 °C
COc1cc(OCCN2CCc3ccccc3C2)ccc1C=NNC(=O)c1ccc(O)c(N)c1 | 162 to 164 °C
